Measurements: patent US8039586B1, “Cerebral organic anion transporter and its gene” (J-Pharma Co., Ltd., priority 1998, dated 2011)
Like-named read-outs stand apart in the source and are kept apart here.

Assays:
rat OAT3 (rk1411) [1] = target: T1, rat OAT3 (rk1411) (Rattus norvegicus, UniProt Q9R1U7); assay: Michaelis-Menten dynamic test of organic anion transport with rk1411 in oocyte; assay type: cell-based
T1 construct: cRNA (RNA complementary to cDNA) was prepared in vitro from the plasmid carrying the clone (rk1411); expressed in transfected cells; host or cells: Xenopus oocytes injected with rk1411 cRNA
T1 sequence (Q9R1U7 1-536): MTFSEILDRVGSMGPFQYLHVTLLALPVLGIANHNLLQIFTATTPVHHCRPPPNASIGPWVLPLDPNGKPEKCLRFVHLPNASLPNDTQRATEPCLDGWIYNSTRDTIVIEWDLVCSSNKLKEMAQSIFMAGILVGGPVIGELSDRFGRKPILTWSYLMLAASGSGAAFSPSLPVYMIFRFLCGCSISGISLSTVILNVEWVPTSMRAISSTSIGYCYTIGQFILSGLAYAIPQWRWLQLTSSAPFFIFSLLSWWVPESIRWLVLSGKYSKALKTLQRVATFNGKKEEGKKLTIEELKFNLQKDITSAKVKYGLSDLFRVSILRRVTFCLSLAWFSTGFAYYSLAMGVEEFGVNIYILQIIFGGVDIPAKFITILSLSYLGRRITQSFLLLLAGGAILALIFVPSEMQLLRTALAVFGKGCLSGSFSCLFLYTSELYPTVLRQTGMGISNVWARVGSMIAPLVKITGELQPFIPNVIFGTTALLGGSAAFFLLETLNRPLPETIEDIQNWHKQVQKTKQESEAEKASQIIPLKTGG
Text: The organic anion transport with rk1411 was subjected to the Michaelis-Menten dynamic test.

rat OAT3 (rk1411) [2] = target: T1, rat OAT3 (rk1411); assay: Uptake of radiolabeled organic anions and cations by Xenopus oocyte expressing rk1411 (rat OAT3); assay type: cell-based; settings: Xenopus oocyte injected with rk1411 cRNA; FIG. 1
Procedure: According to the method already reported (Sekine, T., et al. J. Biol. Chem., Vol. 272, pp. 18526-9, 1997), the resulting cRNA was injected in the Xenopus oocyte; the oocyte was subjected to an uptake test with various radiolabeled organic anions and organic cations.

hOAT3 [3] = target: T2, hOAT3 (Homo sapiens, UniProt Q8TCC7); assay: Uptake of radiolabeled compounds by Xenopus oocyte injected with hOAT3 cRNA; assay type: cell-based; settings: one hour, versus control oocyte
T2 construct: cRNA (RNA complementary to cDNA) was prepared in vitro from the plasmid comprising the hOAT3 recovered above; expressed in transfected cells; host or cells: Xenopus oocytes injected with hOAT3 cRNA
T2 sequence (Q8TCC7 1-542 K271E/D366H): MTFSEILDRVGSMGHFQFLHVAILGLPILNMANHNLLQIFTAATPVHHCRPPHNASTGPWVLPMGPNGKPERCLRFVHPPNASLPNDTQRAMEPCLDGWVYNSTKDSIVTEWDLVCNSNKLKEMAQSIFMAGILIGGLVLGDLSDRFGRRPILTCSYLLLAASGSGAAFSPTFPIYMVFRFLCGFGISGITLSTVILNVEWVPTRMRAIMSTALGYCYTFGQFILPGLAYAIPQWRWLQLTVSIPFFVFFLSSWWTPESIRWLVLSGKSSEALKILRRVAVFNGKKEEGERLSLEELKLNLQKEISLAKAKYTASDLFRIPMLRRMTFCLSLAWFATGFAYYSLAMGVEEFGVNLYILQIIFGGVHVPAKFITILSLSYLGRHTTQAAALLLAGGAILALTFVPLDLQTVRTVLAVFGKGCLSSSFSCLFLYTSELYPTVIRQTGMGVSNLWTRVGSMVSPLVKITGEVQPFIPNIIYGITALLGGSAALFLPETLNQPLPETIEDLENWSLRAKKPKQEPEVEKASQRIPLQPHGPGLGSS
Procedure: By using T7 RNA polymerase, cRNA (RNA complementary to cDNA) was prepared in vitro from the plasmid comprising the hOAT3 recovered above by the method by Sekine, et al. (see Sekine, T., et al. J. Biol. Chem., Vol. 272, pp. 18526-9, 1997).
According to the already reported method of Sekine, et al. (Sekine, T., et al. J. Biol. Chem., Vol. 272, pp. 18526-9, 1997), the resulting hOAT3 cRNA was injected in the Xenopus oocyte; the oocyte was subjected to an uptake test with various radiolabeled organic anions and organic cations. The control oocyte cell (oocyte cell with no injection of hOAT3 cRNA) and the oocyte cell injected with hOAT3 cRNA were cultured in a buffer containing the following radiolabels for one hour, to assay the uptake of the radiolabels into the oocytes.
In each figure, open column expresses the case of the control oocyte used; and closed column expresses the case of the oocyte injected with hOAT3 cRNA.

hOAT3 [4] = target: T3, hOAT3 (Homo sapiens, UniProt Q8TCC7, D366H/K271E); assay: Inhibition of 3H-estrone sulfate uptake in oocyte injected with hOAT3 cRNA; assay type: cell-based; set-up: cRNA (RNA complementary to cDNA) was prepared in vitro from the plasmid comprising the hOAT3 recovered above; expressed in transfected cells; host or cells: Xenopus oocytes injected with hOAT3 cRNA; settings: 50 nM 3H-estrone sulfate; non-radiolabeled compound at 500 μM or the concentration shown in FIG. 19; one hour
T3 sequence (Q8TCC7 1-542 K271E/D366H): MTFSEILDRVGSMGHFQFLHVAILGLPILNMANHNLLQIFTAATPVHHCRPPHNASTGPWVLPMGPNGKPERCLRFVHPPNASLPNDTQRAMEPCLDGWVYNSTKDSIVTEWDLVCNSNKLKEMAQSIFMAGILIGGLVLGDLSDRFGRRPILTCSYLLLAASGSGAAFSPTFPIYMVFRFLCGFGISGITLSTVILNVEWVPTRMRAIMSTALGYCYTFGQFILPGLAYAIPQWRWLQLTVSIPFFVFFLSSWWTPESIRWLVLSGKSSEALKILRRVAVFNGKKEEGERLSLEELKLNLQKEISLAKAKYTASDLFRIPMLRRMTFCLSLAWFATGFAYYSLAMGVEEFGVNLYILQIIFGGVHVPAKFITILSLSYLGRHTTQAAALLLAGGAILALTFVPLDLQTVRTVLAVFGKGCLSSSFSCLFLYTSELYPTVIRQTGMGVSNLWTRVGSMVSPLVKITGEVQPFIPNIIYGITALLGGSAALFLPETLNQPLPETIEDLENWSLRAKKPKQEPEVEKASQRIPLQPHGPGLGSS

hOAT3 [5] = target: T3, hOAT3; settings: transport by hOAT3 in Xenopus oocyte
Text: Then, the hOAT3 transport of organic anions was examined at the Michaelis-Menten kinetic test.

[6] = substrate: CN(Cc1cnc2nc(N)nc(N)c2n1)c1ccc(C(=O)N[C@@H](CCC(=O)O)C(=O)O)cc1; assay: cells, lysate or membranes; settings: other: transport by hOAT3 in Xenopus oocyte
[7] = substrate: Nc1ccc(C(=O)NCC(=O)O)cc1; assay: Michaelis-Menten dynamic test of organic anion transport with rk1411 in oocyte; assay type: cell-based; settings: other: transport by rk1411 (rat OAT3) in Xenopus oocyte; FIG. 2
[8] = transport by rk1411 (rat OAT3) in Xenopus oocyte
[9] = transport by rk1411 (rat OAT3) in Xenopus oocyte, FIG. 2, read-out: Km

## Nc1ccc(C(=O)NCC(=O)O)cc1 [PAH, p-aminohippuric acid]
Rat OAT3 (rk1411) [1]
  Km: 64.7 ± 10 µM
Rat OAT3 (rk1411) [1]; [8]
  Vmax: 23.3 ± 2.8 pmol/hr/oocyte
Rat OAT3 (rk1411) [2]
  uptake of radiolabeled compound by oocyte in which rk1411 was expressed: could take up
hOAT3 [3]; substrate 10 μM
  uptake of radiolabeled compound by oocyte with hOAT3 expression: takes up
hOAT3 [4]
  inhibition of the transport of 3H-estrone sulfate with hOAT3: significantly inhibited

## C[C@@H]1Cc2c(Cl)cc(C(=O)N[C@@H](Cc3ccccc3)C(=O)O)c(O)c2C(=O)O1 [ochratoxin A]
Rat OAT3 (rk1411) [1]; [8]
  Vmax: 8.08 ± 0.33 pmol/hr/oocyte
Rat OAT3 (rk1411) [1]; transport by rk1411 (rat OAT3) in Xenopus oocyte, FIG. 2, listed as Ochratoxin A, read-out: Km
  Km: 0.739 ± 0.178 µM
Rat OAT3 (rk1411) [1]; [9]
  Km: 0.74 µM
Rat OAT3 (rk1411) [2]
  uptake of radiolabeled compound by oocyte in which rk1411 was expressed: could take up
hOAT3 [3]; substrate 100 nM
  uptake of radiolabeled compound by oocyte with hOAT3 expression: takes up

## estrone sulfate
Rat OAT3 (rk1411) [1]; transport by rk1411 (rat OAT3) in Xenopus oocyte, FIG. 2, listed as Estrone sulfate, read-out: Km
  Km: 2.34 ± 0.2 µM
Rat OAT3 (rk1411) [1]; [9]
  Km: 2.3 µM
hOAT3 [5]
  Km: 3.08 µM
hOAT3 [3]; substrate 50 nM
  uptake of radiolabeled compound by oocyte with hOAT3 expression: takes up
hOAT3 [4]
  inhibition of the transport of 3H-estrone sulfate with hOAT3: significantly inhibited

B1: hOAT3 (Homo sapiens; D366H/K271E) (protein)
chain: MTFSEILDRVGSMGHFQFLHVAILGLPILNMANHNLLQIFTAATPVHHCRPPHNASTGPWVLPMGPNGKPERCLRFVHPPNASLPNDTQRAMEPCLDGWVYNSTKDSIVTEWDLVCNSNKLKEMAQSIFMAGILIGGLVLGDLSDRFGRRPILTCSYLLLAASGSGAAFSPTFPIYMVFRFLCGFGISGITLSTVILNVEWVPTRMRAIMSTALGYCYTFGQFILPGLAYAIPQWRWLQLTVSIPFFVFFLSSWWTPESIRWLVLSGKSSEALKILRRVAVFNGKKEEGERLSLEELKLNLQKEISLAKAKYTASDLFRIPMLRRMTFCLSLAWFATGFAYYSLAMGVEEFGVNLYILQIIFGGVHVPAKFITILSLSYLGRHTTQAAALLLAGGAILALTFVPLDLQTVRTVLAVFGKGCLSSSFSCLFLYTSELYPTVIRQTGMGVSNLWTRVGSMVSPLVKITGEVQPFIPNIIYGITALLGGSAALFLPETLNQPLPETIEDLENWSLRAKKPKQEPEVEKASQRIPLQPHGPGLGSS
[6]
  Km: 2.22 µM

B2: rat OAT3 (rk1411) (Rattus norvegicus) (protein)
chain: MTFSEILDRVGSMGPFQYLHVTLLALPVLGIANHNLLQIFTATTPVHHCRPPPNASIGPWVLPLDPNGKPEKCLRFVHLPNASLPNDTQRATEPCLDGWIYNSTRDTIVIEWDLVCSSNKLKEMAQSIFMAGILVGGPVIGELSDRFGRKPILTWSYLMLAASGSGAAFSPSLPVYMIFRFLCGCSISGISLSTVILNVEWVPTSMRAISSTSIGYCYTIGQFILSGLAYAIPQWRWLQLTSSAPFFIFSLLSWWVPESIRWLVLSGKYSKALKTLQRVATFNGKKEEGKKLTIEELKFNLQKDITSAKVKYGLSDLFRVSILRRVTFCLSLAWFSTGFAYYSLAMGVEEFGVNIYILQIIFGGVDIPAKFITILSLSYLGRRITQSFLLLLAGGAILALIFVPSEMQLLRTALAVFGKGCLSGSFSCLFLYTSELYPTVLRQTGMGISNVWARVGSMIAPLVKITGELQPFIPNVIFGTTALLGGSAAFFLLETLNRPLPETIEDIQNWHKQVQKTKQESEAEKASQIIPLKTGG
notes: cRNA (RNA complementary to cDNA) was prepared in vitro from the plasmid carrying the clone (rk1411); expressed in transfected cells; host or cells: Xenopus oocytes injected with rk1411 cRNA
[7]
  Km: 4.7 µM
